Measured values published in patent publication US20250215030A1, “STAT MODULATORS AND USES THEREOF” (Recludix Pharma, Inc., priority 2022, published 2025).

What was measured:
[1] = molecular target: T1, Recombinant STAT3 protein (STAT3(G127-I722)) (Homo sapiens, UniProt P40763); experiment: STAT3 Fluorescence Polarization (FP) Assay; type: binding; conditions: STAT3(G127-I722) 25 nM, probe 5-FAM-GpYLPQTV-NH2 2 nM, 45-minute incubation
T1 construct: STAT3(G127-I722)
In short: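 Serially diluted compounds (1% DMSO) were mixed with 2 nM fluorescent phosphotyrosine peptide and 25 nM STAT3 construct G127-I722, pH 7.4, incubated 45 min at room temperature. IC50 values from fitted polarization curves are reported as categories A (≤100 nM), B, C, D (>10 μM).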

[2] = molecular target: T2, Recombinant STAT6 protein (STAT6(W123-T658)) (Homo sapiens, UniProt P42226); experiment: STAT6 Fluorescence Polarization (FP) Assay; type: binding; conditions: STAT6(W123-T658) 250 nM, probe 5-FAM-ApYKPFQDLI-NH2 2 nM, 45-minute incubation
T2 construct: STAT6(W123-T658)
T2 sequence (P42226 123-658): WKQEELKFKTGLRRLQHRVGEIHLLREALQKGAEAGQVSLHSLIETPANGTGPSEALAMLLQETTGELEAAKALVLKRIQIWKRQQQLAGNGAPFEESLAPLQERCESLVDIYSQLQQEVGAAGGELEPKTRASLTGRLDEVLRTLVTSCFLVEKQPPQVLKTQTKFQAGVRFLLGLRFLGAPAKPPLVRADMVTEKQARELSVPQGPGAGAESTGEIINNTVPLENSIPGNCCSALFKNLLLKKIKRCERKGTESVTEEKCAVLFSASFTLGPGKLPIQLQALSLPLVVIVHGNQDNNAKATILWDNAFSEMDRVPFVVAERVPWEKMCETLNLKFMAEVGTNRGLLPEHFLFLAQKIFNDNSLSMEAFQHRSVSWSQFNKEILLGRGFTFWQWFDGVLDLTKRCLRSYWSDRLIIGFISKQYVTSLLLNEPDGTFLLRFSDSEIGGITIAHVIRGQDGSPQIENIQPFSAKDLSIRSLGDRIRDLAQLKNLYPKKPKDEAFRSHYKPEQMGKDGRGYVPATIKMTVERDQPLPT
In short: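 Competitive displacement of a fluorescent phosphotyrosine peptide (2 nM) from recombinant STAT6 W123-T658 (250 nM), 45 min at room temperature in 10 mM HEPES pH 7.4, 50 mM NaCl, 2 mM DTT. mP fitted against log compound for IC50, grouped A (≤300 nM) to D (>30 μM).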

T1 sequence (P40763 127-722, species assumed): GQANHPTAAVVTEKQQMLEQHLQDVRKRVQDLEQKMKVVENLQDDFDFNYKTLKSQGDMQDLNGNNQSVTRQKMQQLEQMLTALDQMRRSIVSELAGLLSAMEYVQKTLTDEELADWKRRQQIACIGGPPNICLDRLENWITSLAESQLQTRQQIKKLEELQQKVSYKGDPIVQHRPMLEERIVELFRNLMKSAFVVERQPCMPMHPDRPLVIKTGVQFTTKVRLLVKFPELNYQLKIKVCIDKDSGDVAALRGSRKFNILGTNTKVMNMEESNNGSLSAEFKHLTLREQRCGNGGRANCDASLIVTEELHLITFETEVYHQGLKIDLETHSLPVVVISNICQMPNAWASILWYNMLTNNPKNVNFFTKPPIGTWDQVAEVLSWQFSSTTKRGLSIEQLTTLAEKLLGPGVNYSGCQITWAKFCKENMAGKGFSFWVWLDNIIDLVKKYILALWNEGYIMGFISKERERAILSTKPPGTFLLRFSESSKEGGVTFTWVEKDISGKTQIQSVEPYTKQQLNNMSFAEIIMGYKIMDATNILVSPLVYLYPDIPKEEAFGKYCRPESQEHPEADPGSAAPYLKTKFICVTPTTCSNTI

Row | IC50 [1] [nM] | IC50 [2] [µM] | Structure (SMILES)
1 | < 100 | 3 to 30 | CS(=N)(=O)CC1CN(C(=O)[C@@H]2CC[C@@H]3C[C@@H]4C[C@@H]4C[C@H](NC(=O)c4cc5cc(C(F)(F)P(=O)(O)O)ccc5s4)C(=O)N32)C1 (stereo partly drawn) [Compound 83, (difluoro(2-(((3S,6S,7aR,8aS,9aR)-3-(3-((S-methysulfonimidoyl)methyl)azetidine-1-carbonyl)-5-oxodecahydro-1H-cyclopropa[d]pyrrolo[1,2-a]azocin-6-yl)carbamoyl)benzo[b]thiophen-5-yl)methyl)phosphonic acid]
2 | < 100 | 3 to 30 | COCC1(c2ccccc2)CN(C(=O)[C@@H]2CC[C@@H]3C[C@@H]4C[C@@H]4C[C@H](NC(=O)c4cc5cc(C(F)(F)P(=O)(O)O)ccc5s4)C(=O)N32)C1 [Compound 84, (difluoro(2-(((3S,6S,7aR,8aS,9aR)-3-(3-(methoxymethyl)-3-phenylazetidine-1-carbonyl)-5-oxodecahydro-1H-cyclopropa[d]pyrrolo[1,2-a]azocin-6-yl)carbamoyl)benzo[b]thiophen-5-yl)methyl)phosphonic acid]
3 | < 100 | 3 to 30 | O=C(N[C@H]1C[C@@H]2C[C@@H]2C[C@H]2CC[C@@H](C(=O)N3CC(C(=O)N4CC(c5ccccn5)C4)C3)N2C1=O)c1cc2cc(C(F)(F)P(=O)(O)O)ccc2s1 [Compound 86, (difluoro(2-(((3S,6S,7aS,8aR,9aR)-5-oxo-3-(3-(3-(pyridin-2-yl)azetidine-1-carbonyl)azetidine-1-carbonyl)decahydro-1H-cyclopropa[d]pyrrolo[1,2-a]azocin-6-yl)carbamoyl)benzo[b]thiophen-5-yl)methyl)phosphonic acid]
4 | < 100 | 3 to 30 | O=C(N[C@H]1C[C@@H]2C[C@@H]2C[C@H]2CC[C@@H](C(=O)N3CC(O)(c4ccccn4)C3)N2C1=O)c1cc2cc(C(F)(F)P(=O)(O)O)ccc2s1 [Compound 87, (difluoro(2-(((3S,6S,7aS,8aR,9aR)-3-(3-hydroxy-3-(pyridin-2-yl)azetidine-1-carbonyl)-5-oxodecahydro-1H-cyclopropa[d]pyrrolo[1,2-a]azocin-6-yl)carbamoyl)benzo[b]thiophen-5-yl)methyl)phosphonic acid]
5 | < 100 | 0.3 to 3 | N#CC1(c2ccccn2)CN(C(=O)[C@@H]2CC[C@@H]3C[C@H]4C[C@H]4C[C@H](NC(=O)c4cc5cc(C(F)(F)P(=O)(O)O)ccc5s4)C(=O)N32)C1 [Compound 89, ((2-(((3S,6S,7aS,8aR,9aR)-3-(3-cyano-3-(pyridin-2-yl)azetidine-1-carbonyl)-5-oxodecahydro-1H-cyclopropa[d]pyrrolo[1,2-a]azocin-6-yl)carbamoyl)benzo[b]thiophen-5-yl)difluoromethyl)phosphonic acid]
6 | 100 to 1000 | 3 to 30 | CC(=O)N1CCC2(C1)CN(C(=O)[C@@H]1CC[C@@H]3C[C@H]4C[C@H]4C[C@H](NC(=O)c4cc5cc(C(F)(F)P(=O)(O)O)ccc5s4)C(=O)N31)C2 [Compound 92, ((2-(((35,6S,7aS,8aR,9aR)-3-(6-acetyl-2,6-diazaspiro[3.4]octane-2-carbonyl)-5-oxodecahydro-1H-cyclopropa[d]pyrrolo[1,2-a]azocin-6-yl)carbamoyl)benzo[b]thiophen-5-yl)difluoromethyl)phosphonic acid]
7 | 100 to 1000 | 3 to 30 | CC1(C(=O)N2CCOCC2)CN(C(=O)[C@@H]2CC[C@@H]3C[C@H]4C[C@H]4C[C@H](NC(=O)c4cc5cc(C(F)(F)P(=O)(O)O)ccc5s4)C(=O)N32)C1 [Compound 93, (difluoro(2-(((3S,6S,7aS,8aR,9aR)-3-(3-methyl-3-(morpholine-4-carbonyl)azetidine-1-carbonyl)-5-oxodecahydro-1H-cyclopropa[d]pyrrolo[1,2-a]azocin-6-yl)carbamoyl)benzo[b]thiophen-5-yl)methyl)phosphonic acid]
8 | < 100 | 3 to 30 | O=C(N[C@H]1C[C@@H]2C[C@@H]2C[C@H]2CC[C@@H](C(=O)N3CC(n4ccnc4)C3)N2C1=O)c1cc2cc(C(F)(F)P(=O)(O)O)ccc2s1 [Compound 94]
9 | 100 to 1000 | 3 to 30 | O=C(N[C@H]1C[C@@H]2C[C@@H]2C[C@H]2CC[C@@H](C(=O)N3CC(F)(C(=O)N4CCOCC4)C3)N2C1=O)c1cc2cc(C(F)(F)P(=O)(O)O)ccc2s1 [Compound 95, (difluoro(2-(((3S,6S,7aS,8aR,9aR)-3-(3-fluoro-3-(morpholine-4-carbonyl)azetidine-1-carbonyl)-5-oxodecahydro-1H-cyclopropa[d]pyrrolo[1,2-a]azocin-6-yl)carbamoyl)benzo[b]thiophen-5-yl)methyl)phosphonic acid]

Further lines, the molecule ahead of its results:

Row | Structure (SMILES) | IC50 [1] [nM] | IC50 [2] [µM]
10 | Cc1ccccc1C1CN(C(=O)[C@@H]2CC[C@@H]3C[C@H]4C[C@H]4C[C@H](NC(=O)c4cc5cc(C(F)(F)P(=O)(O)O)ccc5s4)C(=O)N32)C1 [Compound 85, (difluoro(2-(((3S,6S,7aS,8aR,9aR)-5-oxo-3-(3-(o-tolyl)azetidine-1-carbonyl)decahydro-1H-cyclopropa[d]pyrrolo[1,2-a]azocin-6-yl)carbamoyl)benzo[b]thiophen-5-yl)methyl)phosphonic acid] | < 100 | 0.3 to 3
11 | COc1ccc(C2CCN(C(=O)[C@@H]3CC[C@@H]4C[C@H]5C[C@H]5C[C@H](NC(=O)c5cc6cc(C(F)(F)P(=O)(O)O)ccc6s5)C(=O)N43)C2)cn1 (stereo partly drawn) [Compound 88, (difluoro(2-(((3S,6S,7aS,8aR,9aR)-3-(3-(6-methoxypyridin-3-yl)pyrrolidine-1-carbonyl)-5-oxodecahydro-1H-cyclopropa[d]pyrrolo[1,2-a]azocin-6-yl)carbamoyl)benzo[b]thiophen-5-yl)methyl)phosphonic acid] | < 100 | 0.3 to 3
12 | O=C(N[C@H]1C[C@@H]2C[C@@H]2C[C@H]2CC[C@@H](C(=O)N3CC4(CC(=O)c5nccn54)C3)N2C1=O)c1cc2cc(C(F)(F)P(=O)(O)O)ccc2s1 [Compound 90, (difluoro(2-(((3S,6S,7aS,8aR,9aR)-5-oxo-3-(7′-oxo-6′,7′-dihydrospiro[azetidine-3,5′-pyrrolo[1,2-a]imidazole]-1-carbonyl)decahydro-1H-cyclopropa[d]pyrrolo[1,2-a]azocin-6-yl)carbamoyl)benzo[b]thiophen-5-yl)methyl)phosphonic acid] | < 100 | 0.3 to 3
13 | O=C(N[C@H]1C[C@@H]2C[C@@H]2C[C@H]2CC[C@@H](C(=O)N3CC(N4CCOCC4)C3)N2C1=O)c1cc2cc(C(F)(F)P(=O)(O)O)ccc2s1 [Compound 91, (difluoro(2-(((3S,6S,7aS,8aR,9aR)-3-(3-morpholinoazetidine-1-carbonyl)-5-oxodecahydro-1H-cyclopropa[d]pyrrolo[1,2-a]azocin-6-yl)carbamoyl)benzo[b]thiophen-5-yl)methyl)phosphonic acid] | 100 to 1000 | 3 to 30
14 | O=C(N[C@H]1C[C@@H]2C[C@@H]2C[C@H]2CC[C@@H](C(=O)N3CC(C4CCOCC4)C3)N2C1=O)c1cc2cc(C(F)(F)P(=O)(O)O)ccc2s1 [Compound 96, (difluoro(2-(((3S,6S,7aS,8aR,9aR)-5-ox0-3-(3-(tetrahydro-2H-pyran-4-yl)azetidine-1-carbonyl)decahydro-1H-cyclopropa[d]pyrrolo[1,2-a]azocin-6-yl)carbamoyl)benzo[b]thiophen-5-yl)methyl)phosphonic acid] | 100 to 1000 | 3 to 30
15 | O=C(N[C@H]1C[C@@H]2C[C@@H]2C[C@H]2CC[C@@H](C(=O)N3CC(c4ccccn4)C3)N2C1=O)c1cc2cc(C(F)(F)P(=O)(O)O)ccc2s1 [Compound 97, (difluoro(2-(((3S,6S,7aS,8aR,9aR)-5-ox0-3-(3-(pyridin-2-yl)azetidine-1-carbonyl)decahydro-1H-cyclopropa[d]pyrrolo[1,2-a]azocin-6-yl)carbamoyl)benzo[b]thiophen-5-yl)methyl)phosphonic acid] | < 100 | 3 to 30
16 | O=C(N[C@H]1C[C@@H]2C[C@@H]2C[C@H]2CC[C@@H](C(=O)N3CC(c4cccnc4)C3)N2C1=O)c1cc2cc(C(F)(F)P(=O)(O)O)ccc2s1 [Compound 100, (difluoro(2-(((3S,6S,7aS,8aR,9aR)-5-ox0-3-(3-(pyridin-3-yl)azetidine-1-carbonyl)decahydro-1H-cyclopropa[d]pyrrolo[1,2-a]azocin-6-yl)carbamoyl)benzo[b]thiophen-5-yl)methyl)phosphonic acid] | < 100 | 3 to 30
17 | CC(C(N)=O)c1cc(-c2ccccc2)ccc1NC(=O)[C@@H]1CC[C@@H]2C[C@H]3C[C@H]3C[C@H](NC(=O)c3cc4cc(C(F)(F)P(=O)(O)O)ccc4s3)C(=O)N21 (stereo partly shown) [Compound 101] | 100 to 1000 | 0.3 to 3
